Measured values from US8796023B2, “Peptide nanostructures containing end-capping modified peptides and methods of generating and using the same” (Ramot at Tel-Aviv University Ltd., priority 2004, dated 2014).
Read-outs that look alike come from different tables or passages of the source. Residues, ends and D or L forms follow the SMILES beside them. *: point of attachment. Fmoc = O=C(OCC1c2ccccc2-c2ccccc21)*; Cbz = O=C(OCc1ccccc1)*; Boc = CC(C)(C)OC(=O)*

Tests used:
[1] = Atomic force microscope (AFM) imaging of the peptide nanostructures; type: physicochemical; conditions: tapping mode, deposited on mica
Description: Atomic Force Microscope (AFM) imaging—The peptide sample solution was diluted again in ddH2O to a concentration of 1 mg/ml. Then the peptide solution was placed on mica grade and dried in vacuum. Dried sample was analyzed using Molecular Imaging PicoSPM II system in tapping mode.

[2] = Self-assembly of end-capping modified diphenylalanine peptides, viewed by SEM/TEM; type: physicochemical; conditions: for structures formed by self-assembly (morphology): HFIP stock diluted in ddH2O, SEM/TEM/AFM
Description: (§1) Materials—End capping modified diphenylalanine peptides, presented in Table 3 hereinbelow, were purchase from Bachem (Bubendorf, Switzerland). Fresh stock solutions of the peptides were prepared by dissolving the lyophilized form of the peptides in 1,1,1,3,3,3-hexafluoro-2-propanol (HFIP, Sigma) at a concentration of 100 mg/ml. To avoid any pre-aggregation, fresh stock solutions were prepared for each experiment. The cyclo-Phe-Phe peptide (Peptide 8) was dissolved in HFIP to a concentration of 25 mg/ml and was subjected to ultrasound until a clear solution was obtained. The peptides stock solutions were diluted into a final concentration of 2 mg/ml in ddH2O. The NH2-Phe-Phe-NH2 peptide (Peptide 3) was diluted into a final concentration of 10 mg/ml in ddH2O.
Scanning electron microscopy (SEM) —Immediately after dilution in ddH2O, peptide solution was allowed to dry at room temperature over glass cover slip and coated with gold. Scanning electron microscopy images were obtained using a JSM JEOL 6300 SEM operating at 5 kV.
Transmission Electron microscopy (TEM) —Samples were placed on a 200 mesh copper grid, covered by carbon stabilized formvar film. After 1 minute excess fluid was removed and the grid was thereafter negatively stained with 2% uranyl acetate in water. After 2 minutes, excess fluid was removed from the grid. The samples were viewed in JEOL 1200EX electron microscope operating at 80 kV.
High resolution transmission electron microscopy—Samples were viewed using a Philips Tecnai F20 Field Emission Gun electron microscope operating at 200 kV. EDX analysis was performed with EDAX detector.
High resolution scanning electron microscopy—HRSEM grids were viewed using a JSM-6700 field emission scanning electron microscope equipped with a cold field emission gun operating at 1 kV.

[3] = Fourier transform infrared spectroscopy of the self-assembled structures; type: physicochemical; conditions: FT-IR amide-I region
Description: Fourier Transform Infrared Spectroscopy—Infrared spectra were recorded using a Nicolet Nexus 470 FT-IR spectrometer with a deuterated triglycine sulfate (DTGS) detector. Peptide solution taken from the abovementioned SEM assays were deposited on a CaF2 plate and dried under reduced pressure. The peptide deposits were resuspended with D2O and subsequently dried to form thin films. The resuspension procedure was repeated twice to ensure maximal hydrogen to deuterium exchange. The measurements […] a 4 cm^−1 resolution and averaging of 2000 scans. The transmittance minimal values were determined by the OMNIC analysis program (Nicolet).

[4] = Dissolving the peptides for stock solutions; type: physicochemical; conditions: in water or in fluoroalcohols
Description: as §1

[5] = same conditions, per WO 2004/052773; cited from earlier work

| Molecule | structures formed by self-assembly (morphology) [2] | molecular conformation of the self-assembled structures [3] | also measured |
| --- | --- | --- | --- |
| CC(=O)NC(Cc1ccccc1)C(=O)NC(Cc1ccccc1)C(N)=O (stereo not drawn) [Peptide 2, Ac-Phe-Phe-NH2] (Ac-Phe-Phe-NH2; configuration not given here) | organized and regular tubular structures | β-sheet conformation | height of nanostructures at the Z-range [1]: about 100 nm; diameters of the tubular structures ([2]; SEM, within minutes after dilution of peptide stock into aqueous solution): few microns to less than 100 nanometers |
| O=C(NC(Cc1ccccc1)C(=O)NC(Cc1ccccc1)C(=O)O)OCC1c2ccccc2-c2ccccc21 (stereo not drawn) [Peptide 6, Fmoc-Phe-Phe-COOH] (Fmoc-Phe-Phe-OH; configuration not given here) | fibrillar structures | – | – |
| CC(C)(C)OC(=O)NC(Cc1ccccc1)C(=O)NC(Cc1ccccc1)C(=O)O (stereo not drawn) [Peptide 5, Boc-Phe-Phe-COOH] (Boc-Phe-Phe-OH; configuration not given here) | highly ordered tubular structures | α-helix conformation | – |
| CC(=O)NC(Cc1ccccc1)C(=O)NC(Cc1ccccc1)C(=O)O (stereo not drawn) [Peptide 4, Ac-Phe-Phe-COOH] (Ac-Phe-Phe-OH; configuration not given here) | – | – | dissolution [4]: did not dissolve |
| NC(Cc1ccccc1)C(=O)NC(Cc1ccccc1)C(=O)O (stereo not drawn) [Peptide 1, NH2-Phe-Phe-COOH] (H-Phe-Phe-OH; configuration not given here) | – | – | structures formed by self-assembly (morphology) [5]: formation of nanotubes |
| cyclo-Phe-Phe [Peptide 8] | bundles of tubular structures | either an α-helix or a β-turn conformation | – |
| NC(=O)C(Cc1ccccc1)NC(=O)C(N)Cc1ccccc1 (stereo not drawn) [Peptide 3, NH2-Phe-Phe-NH2] (H-Phe-Phe-NH2; configuration not given here) | tubular structures | antiparallel β-sheet conformation | – |
| O=C(NC(Cc1ccccc1)C(=O)NC(Cc1ccccc1)C(=O)O)OCc1ccccc1 (stereo not drawn) [Peptide 7, Cbz-Phe-Phe-COOH] (Cbz-Phe-Phe-OH; configuration not given here) | fibrillar structures | antiparallel β-sheet conformation | – |
